Data as given in patent publication US20040229872A1, “Substituted cyclohexane-1,4-diamine compounds with anti-diarrhea and peripheral analgesic activity” (Gruenenthal GmbH, priority 2001, published 2004).

Assays:
mice [1] = assay: PGE2-induced diarrhea in mice; type: in vivo
mice [2] = assay: animal or person; conditions: Mus musculus, iv, read-out: Analgesia, tail flick test in mice, i.v., ED50
mice [3] = conditions: mouse, in vivo
mice [4] = conditions: mouse, in vivo, po

CN(C)C(=O)C(CCN1CCC(O)(c2ccc(Cl)cc2)CC1)(c1ccccc1)c1ccccc1 [Loperamide, loperamide]
ED50 (mice [1]; Mus musculus, iv, read-out: ED50 Value (mg/kg) i.v.): 0.41 mg/kg | PGE2-diarrhea, mice, ED50 i.v. (mice [1]; mouse, in vivo, iv): ED50 i.v. = 0.41 μM | PGE2-diarrhea, mice, ED50 p.o. (mice [1]; mouse, in vivo, po): ED50 p.o. = 9.34 μM | ED50 (mice [2]): > 0.562 mg/kg | action on the central nervous system (in words) (mice [3]): always has a measurable action | tail flick test in mice, i.v.: toxic side effects from (mice [3]; iv): toxic from 0.464 | Carbon passage, mice, ED50 p.o. (mice [4]): ED50 p.o. = ˜15 μM
